This assay has as its target HIS-TGF-βR1 T204D (Homo sapiens (Human), UniProt P36897, T204D). Put plainly: HTRF probe displacement assay with HIS-TGF-βR1 T204D. The settings on record: read-out: TGFbr1 IC50; HTRF probe displacement, 1 nM HIS-TGF-βR1 T204D, 1 hour at room temperature. (TR-FRET usually uses a lanthanide donor and a delayed reading to cut background.)

The results in this text go back to US9884868B2, “TGF-beta inhibitors” (Rigel Pharmaceuticals, Inc., priority 2015, dated 2018).

Sequence of HIS-TGF-βR1 T204D (P36897 34-503 T204D): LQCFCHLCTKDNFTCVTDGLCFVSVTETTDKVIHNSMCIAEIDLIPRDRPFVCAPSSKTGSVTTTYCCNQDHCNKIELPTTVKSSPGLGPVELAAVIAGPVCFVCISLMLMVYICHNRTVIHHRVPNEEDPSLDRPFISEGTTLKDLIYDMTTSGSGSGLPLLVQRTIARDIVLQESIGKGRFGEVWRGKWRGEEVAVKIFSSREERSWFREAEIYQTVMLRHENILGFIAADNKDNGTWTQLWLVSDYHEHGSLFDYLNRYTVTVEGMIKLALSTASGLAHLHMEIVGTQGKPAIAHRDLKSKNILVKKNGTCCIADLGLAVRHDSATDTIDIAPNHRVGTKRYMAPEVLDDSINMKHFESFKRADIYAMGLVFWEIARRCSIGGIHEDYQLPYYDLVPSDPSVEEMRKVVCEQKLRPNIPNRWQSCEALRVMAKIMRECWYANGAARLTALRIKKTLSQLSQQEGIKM

As a reminder, the IC50 is the point on the concentration scale where inhibition reaches its midpoint. As for `NC(=O)c1cnc2ccc(-c3c(-c4ccc(F)cc4)ncn3C3CC(F)(F)C3)nn12` [106′, 6-(1-(3,3-difluorocyclobutyl)-4-(4-fluorophenyl)-1H-imidazol-5-yl)imidazo[1,2-b]pyridazine-3-carboxamide], the IC50 was determined as 6.1 nM.

Turning to `N#Cc1cnc2ccc(-c3c(-c4ccc(N)cc4)ncn3CC(F)F)nn12` [264′, 6-(4-(4-aminophenyl)-1-(2,2-difluoroethyl)-1H-imidazol-5-yl)imidazo[1,2-b]pyridazine-3-carbonitrile], the concentration for half-maximal inhibition (IC50) stood at 516 nM.

As for `Cn1cnc(-c2ccc(F)c(Cl)c2)c1-c1ccc2ncc(C#N)n2n1` [50′, 6-(4-(3-chloro-4-fluorophenyl)-1-methyl-1H-imidazol-5-yl)imidazo[1,2-b]pyridazine-3-carbonitrile], the 50% inhibitory concentration (IC50) was 2.3 nM.

As for `CC1(Cn2cnc(-c3ccc(F)c(Cl)c3)c2-c2ccc3ncc(C#N)n3n2)CC1` [62′, 6-(4-(3-chloro-4-fluorophenyl)-1-((1-methylcyclopropyl)methyl)-1H-imidazol-5-yl)imidazo[1,2-b]pyridazine-3-carbonitrile], the IC50 was found to be 1.6 nM.

As to `NC(=O)c1cnc2ccc(-c3c(-c4ccc(F)cc4)ncn3CCO)nn12` [133′, 6-(4-(4-fluorophenyl)-1-(2-hydroxyethyl)-1H-imidazol-5-yl)imidazo[1,2-b]pyridazine-3-carboxamide], the IC50 is 3.1 nM.

Consider `CC(C)n1cnc(-c2ccc(F)cc2)c1-c1ccc2ncc(C(N)=O)n2n1` [135′, 6-(4-(4-fluorophenyl)-1-isopropyl-1H-imidazol-5-yl)imidazo[1,2-b]pyridazine-3-carboxamide], for which the half-inhibitory concentration (IC50) worked out at 0.7 nM.

Turning to `NC(=O)c1cnc2ccc(-c3c(-c4ccc(F)cc4)ncn3CCCO)nn12` [132′, 6-(4-(4-fluorophenyl)-1-(3-hydroxypropyl)-1H-imidazol-5-yl)imidazo[1,2-b]pyridazine-3-carboxamide], the IC50 came out at 4.7 nM.

In the case of `NCc1cnc2ccc(-c3c(-c4ccc(F)cc4)ncn3CC(F)F)nn12` [196A′, (6-(1-(2,2-difluoroethyl)-4-(4-fluorophenyl)-1H-imidazol-5-yl)imidazo[1,2-b]pyridazin-3-yl)methanamine], the IC50 stood at 20.1 nM.

As to `NC(=O)c1cnc2ccc(-c3c(-c4ccc(F)cc4)ncn3CCCF)cn12` [162′, 6-(4-(4-fluorophenyl)-1-(3-fluoropropyl)-1H-imidazol-5-yl)imidazo[1,2-a]pyridine-3-carboxamide], the 50% inhibitory concentration (IC50) stood at 1.9 nM.

As for `Fc1ccc(-c2ncn(CC(F)F)c2-c2ccc3ncc(F)n3c2)cc1` [Example 288′, 6-(1-(2,2-difluoroethyl)-4-(4-fluorophenyl)-1H-imidazol-5-yl)-3-fluoroimidazo[1,2-a]pyridine], the IC50 worked out at 56.7 nM.

In the case of `N#Cc1cnc2ccc(-c3c(-c4ccc(F)cc4)ncn3CCC(F)F)nn12` [20′, 6-(1-(3,3-difluoropropyl)-4-(4-fluorophenyl)-1H-imidazol-5-yl)imidazo[1,2-b]pyridazine-3-carbonitrile], the half-maximal inhibitory concentration (IC50) came to 2.2 nM.

`NC(=O)c1cnc2ccc(-c3c(-c4ccc(F)cc4)ncn3C[C@H](O)CO)cn12` [161′, (S)-6-(1-(2,3-dihydroxypropyl)-4-(4-fluorophenyl)-1H-imidazol-5-yl)imidazo[1,2-a]pyridine-3-carboxamide]: the IC50 came to 6.7 nM.

For the compound `NC(=O)c1cnc2ccc(-c3c(-c4ccc(F)cc4)ncn3C(CO)CO)cn12` [171′, 6-(1-(1,3-dihydroxypropan-2-yl)-4-(4-fluorophenyl)-1H-imidazol-5-yl)imidazo[1,2-a]pyridine-3-carboxamide], the IC50 is 8.4 nM.

As for `N#Cc1cnc2ccc(-c3c(-c4ccc(F)cc4)ncn3C3CCC(F)(F)C3)nn12` (stereo not drawn) [5′, 6-(1-(3,3-difluorocyclopentyl)-4-(4-fluorophenyl)-1H-imidazol-5-yl)imidazo[1,2-b]pyridazine-3-carbonitrile], the IC50 is 5.5 nM.

As to `CC(C)OCCn1cnc(-c2ccc(F)cc2)c1-c1ccc2ncc(C#N)n2n1` [11′, 6-(4-(4-fluorophenyl)-1-(2-isopropoxyethyl)-1H-imidazol-5-yl)imidazo[1,2-b]pyridazine-3-carbonitrile], the half-maximal inhibitory concentration (IC50) was 3 nM.

For the compound `CC[C@@H](CO)n1cnc(-c2ccc(F)cc2)c1-c1ccc2ncc(C(N)=O)n2n1` [125′, (S)-6-(4-(4-fluorophenyl)-1-(1-hydroxybutan-2-yl)-1H-imidazol-5-yl)imidazo[1,2-b]pyridazine-3-carboxamide], the IC50 stood at 2.6 nM.

Consider `NC(=O)c1cnc2ccc(-c3c(-c4ccc(F)cc4)nc4n3CCC4)cn12` [Example 283′, 6-(2-(4-fluorophenyl)-6,7-dihydro-5H-pyrrolo[1,2-a]imidazol-3-yl)imidazo[1,2-a]pyridine-3-carboxamide], for which the IC50 amounted to 0.9 nM.

On to `NC(=O)c1cnc2ccc(-c3c(-c4ccc(F)cc4)ncn3C3COC3)nn12` [126′, 6-(4-(4-fluorophenyl)-1-(oxetan-3-yl)-1H-imidazol-5-yl)imidazo[1,2-b]pyridazine-3-carboxamide], for which the IC50 was 7.4 nM.

Regarding `N#Cc1cnc2ccc(-c3c(-c4ccccc4C(N)=O)ncn3CC(F)F)nn12` [251′, 2-(5-(3-cyanoimidazo[1,2-b]pyridazin-6-yl)-1-(2,2-difluoroethyl)-1H-imidazol-4-yl)benzamide], the IC50 was 73.5 nM.

For the compound `N#Cc1cnc2ccc(-c3c(-c4ccc(F)cc4)ncn3CCCF)nn12` [21′, 6-(4-(4-fluorophenyl)-1-(3-fluoropropyl)-1H-imidazol-5-yl)imidazo[1,2-b]pyridazine-3-carbonitrile], the IC50 was 1.9 nM.

Consider `CC[C@@H](CF)n1cnc(-c2ccc(F)cc2)c1-c1ccc2ncc(C#N)n2n1` [Example 103′, (S)-6-(1-(1-fluorobutan-2-yl)-4-(4-fluorophenyl)-1H-imidazol-5-yl)imidazo[1,2-b]pyridazine-3-carbonitrile], for which the IC50 was found to be 1.8 nM.

In the case of `N#Cc1cnc2ccc(-c3c(-c4ccc(F)cc4)ncn3C3COC3)nn12` [13′, 6-(4-(4-fluorophenyl)-1-(oxetan-3-yl)-1H-imidazol-5-yl)imidazo[1,2-b]pyridazine-3-carbonitrile], the IC50 is 17 nM.

On to `CC(CO)n1cnc(-c2ccc(F)cc2)c1-c1ccc2ncc(C(N)=O)n2c1` (stereo not drawn) [175′, 6-(4-(4-fluorophenyl)-1-(1-hydroxypropan-2-yl)-1H-imidazol-5-yl)imidazo[1,2-a]pyridine-3-carboxamide], for which the IC50 turned out to be 2 nM.

With `Fc1ccc(-c2ncn(CC(F)F)c2-c2ccc3ncc(C(F)F)n3c2)cc1` [Example 277′, 6-(1-(2,2-difluoroethyl)-4-(4-fluorophenyl)-1H-imidazol-5-yl)-3-(difluoromethyl)imidazo [1,2-a]pyridine], the half-inhibitory concentration (IC50) stood at 20.9 nM.

Take `N#Cc1cnc2ccc(-c3c(-c4ccc(F)cc4)ncn3C3CC(CO)C3)nn12` (stereo not drawn) [27′, 6-(4-(4-fluorophenyl)-1-(3-(hydroxymethyl)cyclobutyl)-1H-imidazol-5-yl)imidazo[1,2-b]pyridazine-3-carbonitrile]: the IC50 came out at 0.6 nM.

As to `CC(C)(C)Cn1cnc(-c2ccc(F)cc2)c1-c1ccc2ncc(C#N)n2n1` [Example 270′, 6-(4-(4-fluorophenyl)-1-neopentyl-1H-imidazol-5-yl)imidazo[1,2-b]pyridazine-3-carbonitrile], the IC50 was found to be 99.2 nM.

For `N#Cc1cnc2ccc(-c3c(-c4ccc(F)c(Cl)c4)ncn3[C@@H]3CCC(F)(F)C3)nn12` [63′, (R)-6-(4-(3-chloro-4-fluorophenyl)-1-(3,3-difluorocyclopentyl)-1H-imidazol-5-yl)imidazo[1,2-b]pyridazine-3-carbonitrile], the IC50 is 0.9 nM.

For the compound `OCc1cnc2ccc(-c3c(-c4ccc(F)cc4)ncn3CC(F)F)cn12` [274D′, (6-(1-(2,2-difluoroethyl)-4-(4-fluorophenyl)-1H-imidazol-5-yl)imidazo[1,2-a]pyridin-3-yl)methanol], the half-inhibitory concentration (IC50) came to 92.6 nM.

Turning to `CC(O)Cn1cnc(-c2ccc(F)cc2)c1-c1ccc2ncc(C(N)=O)n2c1` (stereo not drawn) [176′, 6-(4-(4-fluorophenyl)-1-(2-hydroxypropyl)-1H-imidazol-5-yl)imidazo[1,2-a]pyridine-3-carboxamide], the concentration for half-maximal inhibition (IC50) worked out at 5.2 nM.

In the case of `NC(=O)c1cnc2ccc(-c3c(-c4ccc(F)cc4)ncn3C34CC(C3)C4)nn12` [136′, 6-(1-(bicyclo[1.1.1]pentan-1-yl)-4-(4-fluorophenyl)-1H-imidazol-5-yl)imidazo[1,2-b]pyridazine-3-carboxamide], the IC50 worked out at 12.4 nM.

With `N#Cc1cnc2ccc(-c3c(-c4cc(Cl)c(F)cc4F)ncn3CC(F)F)cn12` [229′, 6-(4-(5-chloro-2,4-difluorophenyl)-1-(2,2-difluoroethyl)-1H-imidazol-5-yl)imidazo[1,2-a]pyridine-3-carbonitrile], the IC50 was 8.6 nM.

As for `CCn1cnc(-c2ccc(F)cc2)c1-c1ccc2ncc(C(N)=O)n2n1` [112′, 6-(1-ethyl-4-(4-fluorophenyl)-1H-imidazol-5-yl)imidazo[1,2-b]pyridazine-3-carboxamide], the half-inhibitory concentration (IC50) came to 0.7 nM.

For `N#Cc1cnc2ccc(-c3c(-c4ccc(F)c(Cl)c4)ncn3CCCF)nn12` [54′, 6-(4-(3-chloro-4-fluorophenyl)-1-(3-fluoropropyl)-1H-imidazol-5-yl)imidazo[1,2-b]pyridazine-3-carbonitrile], the IC50 was found to be 0.8 nM.

For the compound `N#Cc1cnc2ccc(-c3c(-c4ccc(F)cc4)ncn3C34CC(C3)C4)nn12` [25′, 6-(1-(bicyclo[1.1.1]pentan-1-yl)-4-(4-fluorophenyl)-1H-imidazol-5-yl)imidazo[1,2-b]pyridazine-3-carbonitrile], the half-inhibitory concentration (IC50) is 2.6 nM.

Turning to `NC(=O)c1cnc2ccc(-c3c(-c4ccc(F)cc4)ncn3C(CO)CO)nn12` [129′, 6-(1-(1,3-dihydroxypropan-2-yl)-4-(4-fluorophenyl)-1H-imidazol-5-yl)imidazo[1,2-b]pyridazine-3-carboxamide], the IC50 was found to be 5.1 nM.

Regarding `CCC(C)n1cnc(-c2ccc(F)cc2)c1-c1ccc2ncc(C#N)n2c1` (stereo not drawn) [67′, 6-(1-(sec-butyl)-4-(4-fluorophenyl)-1H-imidazol-5-yl)imidazo[1,2-a]pyridine-3-carbonitrile], the half-inhibitory concentration (IC50) was determined as 55.8 nM.
